Test systems include TK-10 renal; RPMI-8226 leukemia; HCT-15 colon; SF-295 CNS; HOP-62 NSCLC; OVCAR-8 ovarian; NCI-H460 lung; MCF7 breast; KM12 colon; NCI-H522 lung.
Experiment in all cases: inhibition of tumour cell growth, NCI panel, 48 h

Values joined by “and” are separate entries in the source; they are usually repeats but may differ in a detail not shown here. Equal entries are not always repeated.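 Where inhibition never reached the appropriate level, the endpoint shown equals the highest concentration tested. Otherwise, values were interpolated linearly from a five-concentration, 48-hour dose response in 96-well plates. GI50: concentration for 50% inhibition of growth. At the TGI there is no net growth.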 Some results are limits rather than exact numbers.

As to `C[C@@H](NC(C#N)c1ccco1)c1ccccc1` (stereo not given in full), the TGI in the experiment with TK-10 renal, in the experiment on RPMI-8226 leukemia, with HCT-15 colon, in the experiment with SF-295 CNS, in the experiment on HOP-62 NSCLC and in the experiment with OVCAR-8 ovarian was > 100 µM each time. In addition, the TGI in the experiment with NCI-H460 lung, with MCF7 breast and with KM12 colon was > 100 µM throughout.
As to `O=[N+]([O-])c1ccccc1N=Nc1c(O)[nH]c2cccc(C(F)(F)F)c12`, the TGI in the experiment with TK-10 renal was > 100 µM; with RPMI-8226 leukemia, > 100 µM; in the experiment with HCT-15 colon, > 100 µM; in the experiment with SF-295 CNS, > 100 µM; in the experiment on NCI-H522 lung it was 69.3 µM; with HOP-62 NSCLC, 82.8 µM. Moreover, the TGI in the experiment with OVCAR-8 ovarian, in the experiment with NCI-H460 lung, with MCF7 breast and in the experiment with KM12 colon was > 100 µM in each case.
With `N#CC(C#N)=C/C=C(\Cl)c1ccc(Cl)cc1`, the GI50 is 4.66 µM in the experiment with TK-10 renal; 4.12 µM in the experiment with RPMI-8226 leukemia; 4.5 µM in the experiment with HCT-15 colon; 9.73 µM with SF-295 CNS; 5.81 µM in the experiment on NCI-H522 lung; 14.3 µM in the experiment with HOP-62 NSCLC. Besides, the GI50 in the experiment on OVCAR-8 ovarian was 10.1 µM; in the experiment on NCI-H460 lung, 25.1 µM; with MCF7 breast it was 14 µM; in the experiment with KM12 colon, 15 µM. The TGI in the experiment on TK-10 renal is 19.2 µM; in the experiment with RPMI-8226 leukemia, > 100 µM; in the experiment with HCT-15 colon it was > 42.2 µM; in the experiment with SF-295 CNS, 36.4 µM; with NCI-H522 lung, > 49.6 µM; with HOP-62 NSCLC, 31.3 µM. For the same molecule, the TGI with OVCAR-8 ovarian was 31.4 µM; in the experiment on NCI-H460 lung it was > 100 µM; in the experiment with MCF7 breast it was > 100 µM; in the experiment with KM12 colon, 44.1 µM.
`COc1cc2c(c3c1c(=O)c1ccccc1n3C)C=CC1(CCCC1)O2`: the TGI in the experiment on TK-10 renal was 33.7 µM; in the experiment with RPMI-8226 leukemia, 5.48 µM; in the experiment on HCT-15 colon, 35.5 µM; with SF-295 CNS, 12.1 µM; in the experiment with NCI-H522 lung, 33.5 µM; with HOP-62 NSCLC it was 28.7 µM. Besides, the TGI turned out to be 57.8 µM with OVCAR-8 ovarian, 24.6 µM in the experiment on NCI-H460 lung, 39.4 µM with MCF7 breast and 25.3 µM in the experiment on KM12 colon.
For `CN(C)CCNC(=O)Cn1ccc(=O)c2cc([N+](=O)[O-])ccc21`, the TGI in the experiment on TK-10 renal, with RPMI-8226 leukemia, with HCT-15 colon, in the experiment on SF-295 CNS, in the experiment on NCI-H522 lung and in the experiment on HOP-62 NSCLC was > 100 µM each time. Moreover, the TGI in the experiment on NCI-H460 lung, in the experiment on MCF7 breast and in the experiment on KM12 colon was > 100 µM throughout.
`CC(=O)c1c(C(F)(F)F)n([O-])c2ccccc2[n+]1=O`: the GI50 in the experiment with TK-10 renal is 1.2 µM; in the experiment on RPMI-8226 leukemia, 0.572 µM; with HCT-15 colon, 1.29 µM; in the experiment on SF-295 CNS it was 1.07 µM; in the experiment on NCI-H522 lung it was 2.46 µM; with HOP-62 NSCLC it was 2.34 µM. Further, the GI50 with OVCAR-8 ovarian is 2.96 µM; with NCI-H460 lung it was 0.857 µM; with MCF7 breast it was 0.873 µM; with KM12 colon, 1.19 µM. Besides, the TGI in the experiment with TK-10 renal is 5.59 µM; with RPMI-8226 leukemia, 3.62 µM; with HCT-15 colon, 50.4 µM; with SF-295 CNS, 4.53 µM; in the experiment on NCI-H522 lung, > 100 µM; in the experiment with HOP-62 NSCLC, 11.9 µM. Besides, the TGI is > 100 µM with OVCAR-8 ovarian, 10.8 µM in the experiment with NCI-H460 lung, 4.08 µM with MCF7 breast and 3.43 µM in the experiment with KM12 colon.
Take `CC1CC(C)CC(C)C(O)/C(C#N)=C/C=C/CC(C2CCCC2C(=O)O)OC(=O)CC(O)C(C)C1` (stereo not given): the TGI is 0.089 µM and 0.432 µM with TK-10 renal; 0.0315 µM and < 0.145 µM in the experiment on RPMI-8226 leukemia; 0.114 µM and 0.104 µM with HCT-15 colon; 0.203 µM and 0.222 µM in the experiment with SF-295 CNS; 0.0137 µM and < 0.0119 µM in the experiment on NCI-H522 lung; 0.108 µM and 0.0648 µM with HOP-62 NSCLC. Besides, the TGI is 0.472 µM and 0.344 µM in the experiment with OVCAR-8 ovarian; 0.371 µM with NCI-H460 lung; 0.0436 µM with MCF7 breast; 0.216 µM and 0.227 µM with KM12 colon. Besides, the GI50 with RPMI-8226 leukemia was 0.00486 µM; in the experiment with HCT-15 colon it was 0.0229 µM; in the experiment on NCI-H522 lung it was 0.00266 µM; in the experiment on HOP-62 NSCLC, 0.0183 µM; with OVCAR-8 ovarian, 0.0495 µM; in the experiment on NCI-H460 lung, 0.0518 µM. Also, the GI50 in the experiment with MCF7 breast is 0.00614 µM; in the experiment with KM12 colon, 0.0473 µM and < 0.0158 µM.
In the case of `COC(=O)C1=C(O)C(C(=O)OC)C2CC(=O)CC1C2(C)C` (stereo not given), the TGI with TK-10 renal, in the experiment on RPMI-8226 leukemia, with HCT-15 colon, in the experiment with SF-295 CNS, in the experiment on NCI-H522 lung and in the experiment on HOP-62 NSCLC was > 100 µM in each case. In addition, the TGI with OVCAR-8 ovarian, in the experiment on NCI-H460 lung, with MCF7 breast and in the experiment on KM12 colon was > 100 µM in each case.
As for `CCNCCNC(=O)c1ccc(I)cc1`, the TGI with TK-10 renal, in the experiment on RPMI-8226 leukemia, in the experiment on HCT-15 colon, in the experiment on OVCAR-8 ovarian, in the experiment on NCI-H460 lung and in the experiment on MCF7 breast was > 100 µM in each case. The TGI with KM12 colon is > 100 µM.
Turning to `CCSCCCSCCSCC`, the TGI in the experiment on TK-10 renal, in the experiment with HCT-15 colon, in the experiment with SF-295 CNS, in the experiment on NCI-H522 lung, in the experiment on HOP-62 NSCLC and with OVCAR-8 ovarian was > 100 µM each time. Besides, the TGI in the experiment on NCI-H460 lung, in the experiment with MCF7 breast and with KM12 colon was > 100 µM throughout.
`c1ccc(C2ONC3=NCCN32)cc1` (stereo not given): the GI50 in the experiment on TK-10 renal is > 100 µM; in the experiment with HCT-15 colon, 16.9 µM; with SF-295 CNS, 48.3 µM; in the experiment on NCI-H522 lung, 44.5 µM; with HOP-62 NSCLC, 49.4 µM; with OVCAR-8 ovarian, 44.6 µM. Also, the GI50 in the experiment on NCI-H460 lung was 44.9 µM; with MCF7 breast, 55.9 µM; in the experiment on KM12 colon it was 51.3 µM. In addition, the TGI in the experiment with TK-10 renal, in the experiment with HCT-15 colon, in the experiment with SF-295 CNS, in the experiment with NCI-H522 lung, with HOP-62 NSCLC and in the experiment with OVCAR-8 ovarian was > 100 µM each time. For the same molecule, the TGI in the experiment on NCI-H460 lung, in the experiment with MCF7 breast and in the experiment on KM12 colon was > 100 µM each time.

The values are drawn from PubChem BioAssay (NCI).
